What was measured:
Format in all cases: in vivo, C57BL/6J male mice
[1] = test system: MK-801 treated mice; experiment: Open field, MK-801-induced hyper-locomotion
Procedure: Each mouse in Groups 2-6 received an acute administration of MK-801 (Sigma-Aldrich, USA) dissolved in normal saline, 0.1 mg/kg, i.p.) 20 minutes prior to the behavioral tests. Each mouse in Groups 3-6 received an acute administration of tannic acids (Sigma-Aldrich, USA; dissolved in PBS, 10, 15, 20 or 30 mg/kg, i.p.) 20 minutes prior to the MK-801 administration.
(§1) Each mouse in Groups 2-5 received an acute administration of MK-801 (Sigma-Aldrich, USA) dissolved in normal saline, 0.1 mg/kg for open field and Barnes maze tasks, and 0.2 mg/kg for prepulse inhibition and sucrose preference tasks by i.p. injection) 20 minutes prior to the behavioral tests. Each mouse in Groups 3-6 received an acute oral administration of tannic acids (Merck Millipore, Germany; dissolved in PBS, 10, 30, or 100 mg/kg, p.o.) 20 minutes prior to the MK-801 administration.
Each mouse in Groups 2-5 received an acute administration of 0.2 mg/kg MK-801 (Sigma-Aldrich, USA) dissolved in normal saline by i.p. injection 20 minutes prior to the locomotion activity test. […]
The open field task is a common measurement of novelty induced exploratory behavior and general activity in both mice and rats. […] Their spontaneous locomotor activities were measured for 30 minutes using the SMART video tracking system (Panlab, Harvard Apparatus). The travel distance of each mouse was measured as an index of locomotion activity.

[2] = test system: MK-801 treated mice; experiment: Sucrose preference (anhedonia) in MK-801 treated mice; settings: MK-801 alone 0.2 mg/kg i.p.
Procedure: as §1
Sucrose preference test has been commonly examined in mouse models of several mental illnesses, including, but not limited to, depression, major depression disorder, anhedonia, negative symptoms of schizophrenia, chronic mild and unpredictable stress (see Anderson et al., 2006; Carvalho et al., 2013; Briones et al., 2011; Der-Avakian and Markou, 2012; Tye et al., 2013; Edwards and Koob, 2012; Brigman et al., 2010; Koo and Duman, 2007; Nestler and Hyman, 2010; Overstreet, 2012; Papp et al., 1991; Santiago et al., 2010; Skalisz et al., 2002; Szczypka et al., 2001; Taylor et al., 2010; Vardigan et al., 2010; Willner et al., 1987; You et al., 2011).

[3] = test system: MK-801 treated mice; experiment: Prepulse inhibition in MK-801-treated mice

Compound: C[C@]12N[C@H](Cc3ccccc31)c1ccccc12 [MK-801, dizocilpine]
- locomotion activity vs control group ([1]; MK-801 alone 0.1 mg/kg i.p. (Example 3)): hyper-locomotion activity
- locomotion activity vs control group ([1]; MK-801 alone 0.2 mg/kg i.p. (Example 9)): hyper-locomotion activity
- preference toward the sucrose solution (2%) vs control group [2]: did not show the preference toward the sucrose solution
- prepulse inhibition vs control group ([3]; MK-801 alone 0.2 mg/kg i.p. (Example 4)): robust prepulse inhibition deficits
- prepulse inhibition vs control group ([3]; MK-801 alone 0.3 mg/kg i.p., all prepulse intensities (Example 9)): robust prepulse inhibition deficits
